Data: patent US20260345603A1, “PRMT5 INHIBITORS” (Beijing Earthwise Technology Co., Ltd., priority 2022, published 2026)
Like-named read-outs stand apart in the source and are kept apart here.

Legend:
Type in all cases: cell-based
[1] = test system: HCT116 cells (HCT116^MTAP WT); experiment: Anti-proliferation assay on cells (CTG, 10 days), HCT116 (MTAP WT); settings: for selectivity (HCT116 vs HCT116^MTAP Deletion GI50): 14400 min; for GI50: Homo sapiens, HCT-116, HCT116 (MTAP WT); for Selectivity multiple of HCT116^MTAP WT GI50/HCT116^MTAP Deletion GI50: ratio HCT116 MTAP WT GI50 / HCT116 MTAP Deletion GI50
Experimental: (§1) HCT116^MTAD Deletion cells were from Pharmaron (China); HCT116 cells were from ATCC; McCoy's 5A medium was purchased from Invitrogen (USA); penicillin-streptomycin and fetal bovine serum were purchased from Gibco (USA); a 384-well plate was purchased from PerkinElmer (USA); and Cell-Titer Glo reagent was purchased from Promega (USA).
(§2) Compound dissolution: All the compounds were dissolved in dimethyl sulfoxide (DMSO) and then stored. The compounds were stored at room temperature in a dry condition for 3 months for short term storage or at −20 °C for long term storage.
(§3) The cells were cultured strictly in accordance with ATCC requirements. The cell culture medium (McCoy's 5A medium+10% fetal bovine serum+1% penicillin+streptomycin) was transferred to a 15 mL centrifuge tube and centrifuged at 1000 rpm for 5 min. The supernatant was removed. The cells were resuspended with complete culture medium, inoculated into a culture dish at the required density, and cultured in an incubator at 37 °C, 95% humid air, and 5% carbon dioxide. The culture medium was replenished or the cells were passaged every 2-3 days depending on the cell growth condition.
(§4) When the confluency of cells in the culture dish reached about 90%, the cells were washed twice with PBS, and then treated with trypsin to become single cells. The cells were counted, and 40 μl of the cells was inoculated into each well of a 384-well plate (50 cells/well). The plate was equilibrated at 37 °C and 5% carbon dioxide for 10 to 15 minutes. The compounds were injected into the 384-well plate using Echo550, and positive control and negative control (0.1% DMSO) were set up. Each compound was subjected to a 3-fold dilution, resulting in 10 concentration gradients, in duplicate, and the content of DMSO was 0.1%. The 384-well plate was incubated in a cell culture incubator for 10 days.
(§5) Then, 40 μl of cell proliferation assay reagent (CTG) was added to the 384-well plate, and the plate was shaken to mix well. Then, the 384-well plate was incubated at 37 °C and 5% carbon dioxide in the dark for 30 minutes. The data were read using the Envision multifunctional microplate reader. […] According to the different drug concentrations and their corresponding inhibition rates, the GI50 curve was drawn using GraphPad 8.0 software. The data were analyzed, and the final GI50 value was obtained.

[2] = test system: HCT116^MTAP Deletion cells; experiment: Anti-proliferation assay on cells (CTG, 10 days), HCT116 MTAP Deletion
Experimental: as §1, §2, §3, §4, §5

[3] = target: T1, cellular SDMA in HCT116^MTAP Deletion cells (Homo sapiens, UniProt O14744); experiment: In-Cell Western Assay of cellular SDMA, HCT116 MTAP Deletion; settings: 96 hours, read-out: SDMA inhibition IC50 in HCT116^MTAP Deletion
T1 construct: in-cell Western of symmetric dimethylarginine
T1 sequence (O14744 whole entry, stated change not applied): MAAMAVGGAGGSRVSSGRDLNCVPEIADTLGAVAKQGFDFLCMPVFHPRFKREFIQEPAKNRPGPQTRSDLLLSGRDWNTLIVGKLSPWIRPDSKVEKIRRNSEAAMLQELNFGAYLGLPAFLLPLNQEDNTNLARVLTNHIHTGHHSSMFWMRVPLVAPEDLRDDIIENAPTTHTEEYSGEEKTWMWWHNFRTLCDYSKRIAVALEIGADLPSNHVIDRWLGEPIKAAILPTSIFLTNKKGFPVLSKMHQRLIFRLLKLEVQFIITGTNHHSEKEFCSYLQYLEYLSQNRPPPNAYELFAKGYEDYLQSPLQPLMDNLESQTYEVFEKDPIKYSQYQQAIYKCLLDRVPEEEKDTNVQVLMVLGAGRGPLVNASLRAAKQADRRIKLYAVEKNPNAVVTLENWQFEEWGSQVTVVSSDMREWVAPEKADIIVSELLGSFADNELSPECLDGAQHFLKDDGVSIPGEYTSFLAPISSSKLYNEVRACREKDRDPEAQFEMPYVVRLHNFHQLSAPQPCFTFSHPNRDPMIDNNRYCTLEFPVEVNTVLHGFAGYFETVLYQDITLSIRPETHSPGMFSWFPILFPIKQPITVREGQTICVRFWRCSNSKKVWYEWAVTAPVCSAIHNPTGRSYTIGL
T1 sequence (Q9BQA1 whole entry partner): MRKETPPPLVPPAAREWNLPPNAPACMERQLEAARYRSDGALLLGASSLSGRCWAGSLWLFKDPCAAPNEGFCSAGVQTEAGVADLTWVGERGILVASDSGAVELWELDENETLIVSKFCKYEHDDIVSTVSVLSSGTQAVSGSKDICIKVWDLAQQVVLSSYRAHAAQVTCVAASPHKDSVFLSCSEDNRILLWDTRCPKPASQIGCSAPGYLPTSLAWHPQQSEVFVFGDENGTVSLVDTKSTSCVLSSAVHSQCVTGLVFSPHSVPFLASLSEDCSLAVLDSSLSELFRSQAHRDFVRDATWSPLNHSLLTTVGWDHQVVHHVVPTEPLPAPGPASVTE
Excerpt: (§6) HCT116^MTAPD Deletion cells were from Horizon; HCT116 cells were from ATCC; RPMI-1640 medium was purchased from ATCC (USA); penicillin-streptomycin was purchased from Gibco (USA); fetal bovine serum was purchased from ExCell; 96-well plate was purchased from Corning (USA); Symmetric Di-Methyl Arginine Motif [sdme-RG]antibody was purchased from CST (USA); IRDye 800CW Goat anti-Rabbit IgG secondary antibody was purchased from LI-COR (USA), and CellTag 700 stain was purchased from LI-COR (USA).
(§7) Compound dissolution: All the compounds were dissolved in dimethyl sulfoxide (DMSO) and then stored. The compounds were stored at −20 °C for long term storage.
The cells were cultured strictly in accordance with ATCC requirements. The cell culture medium (RPMI-1640 medium+10% serum+1% penicillin+streptomycin) was transferred to a 15 mL centrifuge tube and centrifuged at 1000 rpm for 5 min. The supernatant was removed. The cells were resuspended with complete culture medium, inoculated into a culture dish at the required density, and cultured in an incubator at 37 °C, 95% humid air, and 5% carbon dioxide. The culture medium was replenished or the cells were passaged every 2-3 days depending on the cell growth condition.
When the confluency of cells in the culture dish reached about 90%, the cells were washed twice with PBS, and then digested with trypsin. 100 μl of the cells was inoculated into each well of a 96-well plate (800 cells/well). The plate was incubated overnight in a 37 °C and 5% CO2 incubator. 50 μL of 3× final concentration of a compound was added to the cell culture plate. Each compound was subjected to a 3-fold dilution, resulting in 10 concentration gradients, in duplicate, and the final concentration of DMSO was 0.5%. The plate was incubated in a 37 °C and 5% CO2 incubator for 96 hours.
150 μL of 8% paraformaldehyde was added to each well, and the plate was incubated at room temperature for 15 minutes. The supernatant was discarded. The plate was washed with PBS, and 200 μL of freshly prepared 1× Permeabilization buffer was added to each well. The plate was incubated at room temperature for 30 minutes. The supernatant was discarded. 200 μL of 1× Blocking buffer was added to each well, and the plate was incubated at room temperature for 2 hours. The supernatant was discarded. 50 μL of primary antibody (CST, 1× Incubation buffer 1:500 dilution) was added to each well, and the plate was incubated at 4 °C overnight. The supernatant was discarded. 250 μL of 1× Washing buffer was added to each well, and the plate was washed three times. 50 μL of secondary antibody (IRDye 800CW Goat anti-Rabbit IgG and CellTag 700 dye, 1:800 and 1:500 diluted in Incubation buffer) was added to each well, and the plate was incubated at room temperature for 1 hour. The supernatant was discarded. The plate was washed with 1× Washing buffer. Signals were detected using Licor Odyssey CLX. […] According to the different drug concentrations and their corresponding inhibition rates, the IC50 curve was drawn using GraphPad 8.0 software. The data were analyzed, and the final IC50 value was obtained.

[4] = test system: cellular SDMA in HCT116 cells; experiment: In-Cell Western Assay of cellular SDMA, HCT116; settings: Homo sapiens, HCT-116, 96 hours, read-out: SDMA inhibition IC50 in HCT116
Excerpt: as §6, §7
The cells were cultured strictly in accordance with ATCC requirements. The cell culture medium (RPMI-1640 medium+10% serum+1% penicillin+streptomycin) was transferred to a 15 mL centrifuge tube and centrifuged at 1000 rpm for 5 min. The supernatant was removed. The cells were resuspended with complete culture medium, inoculated into a culture dish at the required density, and cultured in an incubator at 37 °C, 95% humid air, and 5% carbon dioxide. […]
150 μL of 8% paraformaldehyde was added to each well, and the plate was incubated at room temperature for 15 minutes. […] Signals were detected using Licor Odyssey CLX. […] The data were analyzed, and the final IC50 value was obtained.

[5] = Homo sapiens, HCT-116, 240 h, anti-proliferative activity, HCT116 MTAP Deletion, 10 days, class symbols, read-out: HCT116^MTAP Deletion GI50
[6] = Homo sapiens, HCT-116, HCT116 MTAP Deletion, read-out: GI50 for HCT116^MTAP Deletion
[7] = anti-proliferative activity, HCT116 MTAP Deletion, 10 days, class symbols, read-out: HCT116^MTAP Deletion GI50

## C[C@H](c1ncccn1)N(Cc1ccc(C(F)(F)F)cn1)C(=O)C(=O)Nc1cnc(N)c2cnn(C)c12 [Example 34]
[1]
  selectivity (HCT116 vs HCT116^MTAP Deletion GI50): more than 300 times
  GI50: 1 to 10 µM
[2]; [5]
  GI50: 100 to 1000 nM
[2]; [6]
  GI50: ≤ 100 nM

## CN(C(=O)C(=O)Nc1cnc(N)c2c1cnn2C)C1COCc2cc(-c3ccnn3C)ccc21 (stereo not drawn) [Example 156-P1]
[3]
  IC50: ≤ 10 nM

## CN(C(=O)C(=O)Nc1cnc(N)c2c1cnn2C)C1COc2cc(-c3ccnn3C)ccc21 (stereo not drawn) [Example 192-P1]
[3]
  IC50: ≤ 10 nM

## CN(C(=O)C(=O)Nc1cnc(N)c2c1cnn2C)C1COc2cc(C(F)(F)F)ccc21 (stereo not drawn) [Example 89]
[1]
  Selectivity multiple of HCT116^MTAP WT GI50/HCT116^MTAP Deletion GI50: 160
[2]; [5]
  GI50: ≤ 10 nM

## Cc1cc(NC(=O)C(=O)N(Cc2ccc(C(F)(F)F)cn2)C(C)(C)C)cnc1N [Example 33]
[1]
  selectivity (HCT116 vs HCT116^MTAP Deletion GI50): more than 300 times
  GI50: 1 to 10 µM
[2]; [5]
  GI50: 1000 to 10000 nM
[2]; [6]
  GI50: ≤ 100 nM

## CCC(C)N(Cc1ccc(C(F)(F)F)cn1)C(=O)C(=O)Nc1cnc(N)c2c1cnn2C (stereo not drawn) [Example 52]
[2]; [7]
  GI50: ≤ 10 nM

## COC[C@H](C)N(Cc1ccc(C(F)(F)F)cn1)C(=O)C(=O)Nc1cnc(N)c(C)c1 [Example 9]
[2]; [5]
  GI50: 10 to 100 nM

## Cn1ncc2c(NC(=O)C(=O)N(Cc3ccc(C(F)(F)F)cn3)CC3CC3)cnc(N)c21 [Example 43]
[2]; [5]
  GI50: ≤ 10 nM

## CCC(C)N(Cc1ccc(C(F)(F)F)cn1)C(=O)C(=O)Nc1cnc(OC)c(C(N)=O)c1 (single isomer, unassigned) [Example 5-P1]
[2]; [5]
  GI50: 10 to 100 nM

## CN(C(=O)C(=O)Nc1cnc(N)c2c1cnn2C)C1COCc2cc(Cl)c(Cl)cc21 (single isomer, unassigned) [Example 163-P1]
[1]
  Selectivity multiple of HCT116^MTAP WT GI50/HCT116^MTAP Deletion GI50: 94

## CN(C(=O)C(=O)Nc1cnc(N)c2c1cnn2C)C1COCc2cc(C(F)(F)F)ccc21 (stereo not drawn) [Example 106-P2]
[1]
  Selectivity multiple of HCT116^MTAP WT GI50/HCT116^MTAP Deletion GI50: 169
[4]
  IC50: 10 to 100 nM
[3]
  IC50: ≤ 10 nM
[2]; [7]
  GI50: ≤ 10 nM

## CN(C(=O)C(=O)Nc1cnc(N)c2c1cnn2C)C1COc2cc(-c3ccnn3C)ccc21 (racemic) [Compound 192]
[2]; [5]
  GI50: ≤ 10 nM

## Cc1ncc(-c2ccc3c(c2)COCC3N(C)C(=O)C(=O)Nc2cnc(N)c3c2cnn3C)s1 (racemic) [Compound 181]
[2]; [5]
  GI50: ≤ 10 nM

## CN(C(=O)C(=O)Nc1cnc(N)c2c1cnn2C)C1COCc2cc(Br)ccc21 (stereo not drawn) [Example 94]
[2]; [5]
  GI50: ≤ 10 nM

## Cc1ncc(-c2ccc3c(c2)COCC3N(C)C(=O)C(=O)Nc2cnc(N)c3c2cnn3C)s1 (stereo not drawn) [Example 135]
[3]
  IC50: ≤ 10 nM
[2]; [5]
  GI50: ≤ 10 nM

## CN(C(=O)C(=O)Nc1cnc(N)c2c1cnn2C)C1COc2cc(C(F)(F)F)ccc21 (single isomer, unassigned) [Example 112-P1]
[4]
  IC50: 100 to 1000 nM
[3]
  IC50: ≤ 10 nM
[2]; [7]
  GI50: ≤ 10 nM

## C[C@H](c1ncccn1)N(Cc1ccc(C(F)(F)F)cn1)C(=O)C(=O)Nc1cnc(N)c(Br)c1 [Example 24]
[2]; [5]
  GI50: 100 to 1000 nM

## CN(C(=O)C(=O)Nc1cnc(N)c2c1cnn2C)C1COCc2cc(C3=CCOCC3)ccc21 (stereo not drawn) [Example 100]
[2]; [5]
  GI50: ≤ 10 nM

## CN(C(=O)C(=O)Nc1cnc(N)c2c1cnn2C)C1COCc2cc(C3=CCOCC3)ccc21 (stereo not drawn) [Example 132-P1]
[3]
  IC50: ≤ 10 nM
[2]; [7]
  GI50: ≤ 10 nM

## CN(C(=O)C(=O)Nc1cnc(N)c2c1cnn2C)C1COc2cc(Br)ccc21 (racemic) [Compound 180]
[2]; [5]
  GI50: ≤ 10 nM

## CN(C(=O)C(=O)Nc1cnc(N)c2c1cnn2C)C1COc2cc(-c3cnn(C(F)(F)F)c3)ccc21 (stereo not drawn) [Example 213]
[2]; [5]
  GI50: ≤ 10 nM

## CN(C(=O)C(=O)Nc1cnc(N)c2c1cnn2C)C1COCc2nc(C(F)(F)F)ccc21 (stereo not drawn) [Example 152-P2]
[3]
  IC50: 10 to 100 nM

## C[C@H](c1ncccn1)N(Cc1ccc(C(F)(F)F)cn1)C(=O)C(=O)Nc1cnc(N)c(Cl)c1 [Example 23]
[2]; [5]
  GI50: 1000 to 10000 nM

## CN(C(=O)C(=O)Nc1cnc(N)c2c1cnn2C)C1COCc2cc(Cl)c(Cl)cc21 (stereo not drawn) [Example 163]
[2]; [5]
  GI50: ≤ 10 nM

## CN(C(=O)C(=O)Nc1cnc(N)c2c1cnn2C)C1COCc2cc(-c3ccc(C(F)(F)F)nc3)ccc21 (racemic) [Compound 221]
[2]; [5]
  GI50: ≤ 10 nM

## CN(C(=O)C(=O)Nc1cnc(N)c2c1cnn2C)C1COCc2cc(-c3ccnn3C)ccc21 (racemic) [Compound 156]
[2]; [5]
  GI50: ≤ 10 nM

## CN1CC=C(c2ccc3c(c2)COCC3N(C)C(=O)C(=O)Nc2cnc(N)c3c2cnn3C)CC1 (stereo not drawn) [Example 160]
[2]; [5]
  GI50: 10 to 100 nM

## Cc1cc(NC(=O)C(=O)N(Cc2ccc(C(F)(F)F)cn2)C2CCCC2)cnc1N [Example 11]
[2]; [5]
  GI50: 100 to 1000 nM

## CCC(C)N(Cc1ccc(C(F)(F)F)cn1)C(=O)C(=O)Nc1cnc(N)c2c1COC2C (stereo not drawn) [Example 10]
[2]; [5]
  GI50: 10 to 100 nM

## CN(C(=O)C(=O)Nc1cnc(N)c2c1cnn2C)C1COc2cc(C(F)(F)F)ccc21 (single isomer, unassigned) [Example 112-P2]
[2]; [7]
  GI50: 10 to 100 nM

## CN(C(=O)C(=O)Nc1cnc(N)c2c1cnn2C)C1COc2cc(F)c(F)cc21 (racemic) [Compound 172]
[2]; [5]
  GI50: 10 to 100 nM

## CCC(C)N(Cc1cnn(C)c1)C(=O)C(=O)Nc1cnc(N)c(C)c1 (stereo not drawn) [Example 73]
[2]; [5]
  GI50: > 10000 nM

## C[C@H](c1ncccn1)N(Cc1ccc(C(F)(F)F)cn1)C(=O)C(=O)Nc1cnc(N)c2c1cnn2C [Example 30]
[2]; [5]
  GI50: 10 to 100 nM

## CN(C(=O)C(=O)Nc1cnc(N)c2c1cnn2C)C1COCc2cc(-c3cnn(C(F)(F)F)c3)ccc21 (racemic) [Compound 231]
[2]; [5]
  GI50: ≤ 10 nM
